Experimental data from publication PMC8427442 (Frontiers in Pharmacology, 2021).
“And” between values parts separate entries of the source, which are not always exact repeats. Equal entries are not always repeated.

Experiments:
[1] = test system: SARS-CoV-2; assay: Plaque assay in SARS-CoV-2-infected Vero E6 cells; type: cell-based
[2] = test system: IL-6, IL-1β, IL-8 mRNA; assay: Proinflammatory gene mRNA by RT-PCR in LPS-stimulated A549 cells; type: cell-based, human; details: 20 µM; for potency in reducing the levels of the four proinflammatory factors (TNF-α, IL-6, IL-1β, IL-8), compared to UJ: LPS-stimulated A549 cells
[3] = molecular target: SARS-CoV-2 3CLpro (Severe acute respiratory syndrome coronavirus 2, UniProt P0DTD1); assay: Protease activity assay with IQF peptide substrate, dose-response; type: biochemical; details: for IC50: IC50 against SARS-CoV-2 3CLpro, 0.125 µM 3CLpro, 1 h preincubation at 37°C, 1.25 µM IQF peptide substrate, 3 h, N = 3, mean ± SEM; for relative SARS-CoV-2 3CLpro activity (down from 100%): compound at 12.5 µM, data not shown
[4] = molecular target: SARS-CoV 3CLpro (Severe acute respiratory syndrome coronavirus, UniProt P0C6X7); type: biochemical
[5] = in vitro; details: African green monkey, half-maximal cytotoxic concentration (CC50)
[6] = test system: TNF-α; assay: TNF-α protein level by western blot in LPS-stimulated A549 cells; type: cell-based, human; details: 20 µM, 1 h before 10 μg/ml LPS, 24 h
Source text: For western blot analysis, an equal amount of the samples were resolved by SDS-PAGE, followed by transfer to PVDF membranes, following the protocol published previously ([Chiang et al., 2020]). Antibodies against TNF-α (GTX110520) and β-actin (GTX109639) were purchased from GeneTex, Taiwan. HRP-conjugated secondary antibodies were from Jackson ImmunoResearch Laboratories, Inc., United States. WesternBright® ECL kits were used for protein visualization (Advansta Inc., United States). Levels of protein expression were quantified in Fiji ([Schindelin et al., 2012]).
Human alveolar basal epithelial A549 cells have been used to investigate several lung diseases at the cellular level, including endotoxin-induced acute pneumonia ([Zhang J. et al., 2020]). To evaluate the anti-inflammatory effect of UJ, A549 cells were induced with lipopolysaccharide (LPS) for 24 h with or without treatment with UJ. Dexamethasone (Dex), an anti-inflammatory agent ([Chen et al., 2021]), was included as a positive control. […] In addition, the expression levels of proinflammatory genes, including interleukin 1β (IL-1β), IL-6 and IL-8 increased by 1.5- to 2-fold in LPS-stimulated A549 cells, compared with the control group (Figures 4B–D). […] Compared to the positive control (Dex at 5 µM), UJ treatment at 20 µM gave rise to a greater decrease in the TNF-α protein level and IL-6 and IL-8 mRNA. […]

[7] = 1 h before 10 μg/ml LPS, 24 h, A549 cells

CCC(CC)COC(=O)[C@H](C)N[P@](=O)(OC[C@H]1O[C@@](C#N)(c2ccc3c(N)ncnn23)[C@H](O)[C@@H]1O)Oc1ccccc1 [Rem, Remdesivir]
inhibition at 2 µM ([1]; Severe acute respiratory syndrome coronavirus 2, Vero C1008, 2 µM, Vero E6 cells, plaque assay, read-out: inhibition of SARS-CoV-2 infection): ~95%

COc1c(-c2ccc(O)cc2)oc2cc(O)cc(O)c2c1=O [Ikae, isokaempferide]
potency in reducing the levels of the four proinflammatory factors (TNF-α, IL-6, IL-1β, IL-8), compared to UJ [2]: relatively moderate potency
IC50 [3]: > 20 µM and 40.2 µM
relative SARS-CoV-2 3CLpro activity (down from 100%) [3]: 60–70%
relative SARS-CoV 3CLpro activity (down from 100%) [4]: 60–70%

C=C1CCCC(C)(C)[C@@H]1Cc1c(O)cc2oc(-c3ccc(O)c(O)c3)cc(=O)c2c1O [UJ, ugonin J]
EC50 ([1]; Severe acute respiratory syndrome coronavirus 2, Vero C1008, Vero E6 cells, 100 PFU, 1 h pretreatment, 3 days, N = 3, mean ± SEM, read-out: half-maximal effective concentration (EC50) against SARS-CoV-2 infection): ~2.38 µM
prevention of SARS-CoV-2 infection ([1]; pretreatment at 10 µM, Vero E6 cells, plaque assay): near complete prevention
downregulation of IL-1β mRNA expression level [2, 7]: more than 1 fold
downregulation of IL-6 mRNA expression level [2, 7]: more than 1 fold
downregulation of IL-8 mRNA expression level [2, 7]: more than 1 fold
CC50 at 48 h [5]: ~783 µM
IC50 [3]: 0.94 µM and ~0.94 µM
relative SARS-CoV-2 3CLpro activity (down from 100%) [3]: about 15%
relative SARS-CoV 3CLpro activity (down from 100%) [4]: about 15%
reduction of TNF-α protein expression level [6]: more than 2 fold

O=c1c(O)c(-c2ccc(O)cc2)oc2cc(O)cc(O)c12 [Kae, kaempferol]
potency in reducing the levels of the four proinflammatory factors (TNF-α, IL-6, IL-1β, IL-8), compared to UJ [2]: relatively moderate potency
IC50 [3]: > 20 µM and 21.7 µM
relative SARS-CoV-2 3CLpro activity (down from 100%) [3]: 60–70%
relative SARS-CoV 3CLpro activity (down from 100%) [4]: 60–70%

O=c1cc(-c2ccc(O)c(O)c2)oc2cc(O)cc(O)c12 [Lu, luteolin]
IC50 [3]: > 20 µM and 20.5 µM
